From patent publication US9676789B2, “Aminated derivative of homoharringtonine, preparation method therefor, and application thereof” (HANGZHOU BENSHENG PHARMACEUTICAL CO., LTD., priority 2011, dated 2017)

Tests used:
[1] = tested on: RPMI8226 (multiple myeloma); test: MTT multiple myeloma cell growth inhibition, 72 h; type: cell-based, human
How it was run: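 Viability determined by MTT after 72 h of compound exposure at 37° C under 5% CO2. Myeloma RPMI8226 cells were seeded at 6000 per well in 1640 medium containing 10% fetal bovine serum.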

[2] = tested on: A549, PANC-1, Becap37, MG63, Huh7, RKO, Hela, CaES-17, CNE, Hep-2, PC-3 and SK-OV-3; test: Anti-human solid tumor effect, summary over cell lines; type: cell-based; conditions: result in words, summary of Table 2
Protocol: Human solid tumor cell lines: Hep-2 ([…]), A549 (human lung cancer), CaES-17 (esophageal cancer cell), PC-3 (prostate cancer), CNE (nasopharyngeal carcinoma cell), and SK-OV-3 (ovarian cancer cell), all of which are purchased from China Center For Type Culture Collection; RKO (human colon adenocarcinoma cell), MGC 803 (human gastric cancer cell), MG63 (osteosarcoma) and U87 MG (malignant glioma cell), all of which are purchased from Fuxiang Bio-tech Co. Ltd., Shanghai, China; PANC-1 (pancreatic cancer), Huh7 (human liver cancer cell), Becap37 (human breast cancer cell), and Hela (human cervical cancer cell), all of which are donated by Cancer Research Institute of Zhejiang University, China.
Obtaining 4000 well-growing human solid tumor cells and inoculating them into wells of a 96-well cell culture plate. The culture medium is DMEM High Glucose cell culture medium containing 10% fetal bovine serum. The plate is placed in a carbon dioxide cell incubator (5% CO2) at 37° C. and incubating for 24 hours. After adding the homoharringtonine derivatives of different concentration and mixing uniformly, the plate is placed in a carbon dioxide cell incubator (5% CO2) at 37° C. and incubating for 72 hours. Then the viable cell concentration is determined by the MTT method and the cell viability (%) after drug treatment is calculated. In this experiment, the cell viability of control group (not treated with any compound) is set as 100%.

[3] = tested on: H9 (acute lymphoblastic leukemia, ALL); test: MTT leukemia cell growth inhibition, 72 h; type: cell-based, human; conditions: H9, 72 h
How it was run: (§1)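 Growth inhibition is derived from MTT-measured viable cells relative to compound-free controls taken as 100%. Treatment with serially varied derivative concentrations lasted 72 hours in 37 °C, 5% CO2 culture.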

[4] = tested on: Jurkat (acute lymphoblastic leukemia, ALL); test: MTT leukemia cell growth inhibition, 72 h; type: cell-based, human
How it was run: as §1

[5] = tested on: NB4 (acute promyelocytic leukemia, AML); test: MTT leukemia cell growth inhibition, 72 h; type: cell-based, human; conditions: NB4, 72 h
How it was run: as §1

[6] = tested on: K562/adr (drug-resistant, chronic myeloid leukemia, CML); test: MTT leukemia cell growth inhibition, 72 h; type: cell-based, human; conditions: K562/adr
How it was run: as §1

[7] = tested on: Kasumi-1 (acute myeloid leukemia M2 type, AML-M2); test: MTT leukemia cell growth inhibition, 72 h; type: cell-based, human; conditions: Kasumi-1, 72 h
How it was run: as §1

[8] = tested on: RKO (human colon adenocarcinoma cell); test: MTT solid tumor cell growth inhibition, 72 h; type: cell-based
How it was run: (§2)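 4000 cells/well, DMEM HG/10% FBS, 37° C, 5% CO2; 24 h attach, then compound dilutions 72 h. MTT; % viability, untreated control = 100%.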

[9] = tested on: Hep-2 (human hepatocellular carcinoma); test: MTT solid tumor cell growth inhibition, 72 h; type: cell-based; conditions: Hep2, 72 h
How it was run: as §2

[10] = tested on: MGC 803 (human gastric cancer cell); test: MTT solid tumor cell growth inhibition, 72 h; type: cell-based; conditions: MGC 803, 72 h
How it was run: as §2

A549 (human lung cancer) = test: MTT solid tumor cell growth inhibition, 72 h; type: cell-based; conditions: A549, 72 h
How it was run: as §2

[11] = tested on: Hela (human cervical cancer cell); test: MTT solid tumor cell growth inhibition, 72 h; type: cell-based; conditions: Hela
How it was run: as §2

[12] = tested on: Huh7 (human liver cancer cell); test: MTT solid tumor cell growth inhibition, 72 h; type: cell-based; conditions: Huh7, 72 h
How it was run: as §2

[13] = tested on: Becap37 (human breast cancer cell); test: MTT solid tumor cell growth inhibition, 72 h; type: cell-based; conditions: Becap37, 72 h
How it was run: as §2

[14] = tested on: K562/adr, NB4, Kasumi-1 and H9; test: Anti-leukemia activity, summary over cell lines; type: cell-based, human; conditions: result in words, summary of Table 1
Excerpt: Leukemia cell lines: K562/adr (drug-resistant, chronic myeloid leukemia, CML), NB4 (acute promyelocytic leukemia, AML), Kasumi-1 (acute myeloid leukemia M2 type, AML-M2), Jurkat (acute lymphoblastic leukemia, ALL), all of which are donated by Cancer Research Institute of Zhejiang University, China; and H9 (acute lymphoblastic leukemia, ALL), which is purchased from China Center for Type Culture Collection.
Obtaining 6000 well-growing leukemia cells and inoculating them into wells of a 96-well cell culture plate. The culture medium is the 1640 cell culture medium containing 10% fetal bovine serum. After adding the homoharringtonine derivatives of different concentrations and mixing uniformly, placing the plate in a carbon dioxide cell incubator (5% CO2) at 37° C. and incubating for 72 hours. Then the viable cell concentration is determined by the MTT method. In this experiment, the cell viability in control group (not treated with any compound) is set as 100%.

[15] = tested on: PANC-1 (pancreatic cancer); test: MTT solid tumor cell growth inhibition, 72 h; type: cell-based, human; conditions: PANC-1, 72 h
How it was run: as §2

[16] = tested on: CNE (nasopharyngeal carcinoma cell); test: MTT solid tumor cell growth inhibition, 72 h; type: cell-based, human
How it was run: as §2

PC-3 (prostate cancer) = test: MTT solid tumor cell growth inhibition, 72 h; type: cell-based, human; conditions: PC-3, 72 h
How it was run: as §2

MG63 (osteosarcoma) = test: MTT solid tumor cell growth inhibition, 72 h; type: cell-based, human; conditions: MG 63, 72 h
How it was run: as §2

[17] = tested on: U87 MG (malignant glioma cell); test: MTT solid tumor cell growth inhibition, 72 h; type: cell-based, human
How it was run: as §2

[18] = tested on: CaES-17 (esophageal cancer cell); test: MTT solid tumor cell growth inhibition, 72 h; type: cell-based, human; conditions: CaES-17, 72 h
How it was run: as §2

[19] = tested on: SK-OV-3 (ovarian cancer cell); test: MTT solid tumor cell growth inhibition, 72 h; type: cell-based, human; conditions: SK-OV-3, 72 h
How it was run: as §2

For “O-3-[(2R)-2,6-dihydroxy-2-(2′-pyrrolyl-2′-oxoethyl)-6-methylheptanoyl]cephalotaxine [BS-HH-012]”, the IC50 ([1]; RPMI8226, 72 h) was 0.057 µg/mL, the IC90 ([1]; RPMI8226, 72 h) was 0.36 µg/mL and the “anti-RPMI8226 (multiple myeloma) effect” value ([1]; result in words, summary of Table 2) was “strong”. For the same substance, the “anti-A549, anti-PANC-1, anti-Becap37, anti-MG63, anti-Huh7, anti-RKO, anti-Hela, anti-CaES-17, anti-CNE, anti-Hep-2, anti-PC-3 and anti-SK-OV-3 effect” value [2] was “strong”, the IC50 [3] was 0.27 µg/mL and the IC90 [3] was 3.49 µg/mL. It also gave an IC50 [4] of 0.058 µg/mL, an IC90 [4] of 16 µg/mL and an IC50 [5] of 0.08 µg/mL. It also gave an IC90 [5] of 0.23 µg/mL, an IC50 [6] of 0.65 µg/mL and an IC90 [6] of 9.87 µg/mL. For the same substance, the IC50 [7] was 0.038 µg/mL, the IC90 [7] was 0.14 µg/mL and the IC50 [8] was 0.11 µg/mL. The IC90 [8] was 0.43 µg/mL, the IC50 [9] was 0.15 µg/mL and the IC90 [9] was over 16 µg/mL. For the same substance, the IC50 [10] was 0.24 µg/mL, the IC90 [10] was 6.84 µg/mL and the IC50 (A549 (human lung cancer)) was 0.45 µg/mL. The IC90 (A549 (human lung cancer)) was over 16 µg/mL, the IC50 [11] was 0.35 µg/mL and the IC90 [11] was over 16 µg/mL. The IC50 [12] was 0.2 µg/mL, the IC90 [12] was over 16 µg/mL and the IC50 [13] was 0.26 µg/mL. For the same substance, the IC90 [13] was 16 µg/mL, the “anti-K562/adr, anti-NB4, anti-Kasumi-1 and anti-H9 activity” value [14] was “strong” and the IC50 [15] was 0.26 µg/mL. It also gave an IC90 [15] of over 16 µg/mL, an IC50 [16] of 0.13 µg/mL and an IC90 [16] of over 16 µg/mL. The IC50 (PC-3 (prostate cancer)) was 0.32 µg/mL, the IC90 (PC-3 (prostate cancer)) was over 16 µg/mL and the IC50 (MG63 (osteosarcoma)) was 0.18 µg/mL. It also gave an IC90 (MG63 (osteosarcoma)) of over 16 µg/mL, an IC50 [17] of 0.24 µg/mL and an IC90 [17] of 1.13 µg/mL. The IC50 [18] was 0.43 µg/mL, the IC90 [18] was over 16 µg/mL and the IC50 [19] was 0.41 µg/mL. It also gave an IC90 [19] of over 16 µg/mL.
